Measured values reported in US6713266B1 (Isodiagnostika Inc., priority 1998, dated 2004).

Experiments:
[1] = tested on: Mouse polyclonal sera (CSA-DVS-KLH immunogen); assay: Inhibition ELISA, CSA-DVS-HSA coated plate, mouse polyclonal sera; format: binding
Experimental: (§1) Inhibition ELISA Protocol:
(§2) 1. Use Falcon Pro-bind immunoplates.
(§3) 2. Dilute coating antigen to 1 μg/mL in carbonate-bicarbonate buffer. Add 100 μL per well and incubate overnight at 4° C.
(§4) 3. On the same day prepare inhibiting antigen tubes. Aliquot antibodies into glass test tubes. Prepare appropriate antigen concentration in ethanol and add to aliquoted antibody at 10 μL ethanol solution/250 μL antibody. Vortex tubes and incubate overnight at 4° C.
(§5) 4. Shake out wells and wash 3× with 200 μL PBS/0.05% TWEEN™ (polyoxyethylene-sorbitol) (v/v) per well.
(§6) 5. Add 200 μL blocking buffer per well (PBS/2% BSA (w/v)). Incubate 60 min at room temperature.
(§7) 7. Transfer contents of inhibition tubes to antigen-coated plate, 100 μL per well. Incubate 60 min at 37° C.
(§8) 9. […] Add 100 μL per well and incubate at 37° C. for 60 min.
(§9) 11. […] Add 100 μL per well and incubate in the dark at room temperature. Absorbance can be read at 405 nm at approximately 15-min intervals.

[2] = tested on: Mouse polyclonal sera (AM1-DVS-KLH immunogens); assay: Antigen panel (direct) ELISA, mouse polyclonal sera; format: binding
Experimental: (§10) 1. Use Falcon Pro-bind immunoplate.
(§11) 2. Dilute coating antigen (Ag) to 1.0 μg/mL in carbonate-bicarbonate buffer. Use glass tubes.
(§12) 3. Add 100 μL to each well of plate. Store overnight at 4° C.
as §5
(§13) 5. Add blocking buffer, 200 μL per well (PBS/2% BSA (w/v)). Incubate for 60 min at 37° C.
(§14) 7. Add 100 μL per well of test antibody appropriately diluted in PBS/0.1% Tween (v/v). Incubate 60 min at 37° C.
(§15) 9. Dilute alkaline phosphatase conjugated anti-mouse IgG (Pierce cat #31322) in PBS/0.1% TWEEN™ (polyoxyethylene-sorbitol) (v/v) to 1:2000 concentration. Add 100 μL per well and incubate at 37° C. for 60 min.
(§16) 10. Wash 3× as in step 4.
as §9

[3] = tested on: Mouse polyclonal sera (AM19-9-DVS-KLH immunogens); assay: as above; format: binding
Experimental: as §10, §11, §12, §5, §13, §14, §15, §16, §9

[4] = tested on: Mouse polyclonal sera (AM9-9-DVS-KLH immunogen); assay: as above; format: binding
Experimental: as §10, §11, §12, §5, §13, §14, §15, §16, §9

[5] = tested on: Mouse polyclonal sera (CSA-DVS-KLH immunogen); assay: as above; format: binding; settings: KLH coated ELISA plates
Experimental: as §10, §11, §12, §5, §13, §14, §15, §16, §9

[6] = tested on: Mouse polyclonal sera (AM1-DVS-KLH immunogen); assay: Inhibition ELISA to the CSA-DVS-HSA conjugate, mouse polyclonal sera; format: binding
Experimental: as §1, §2, §3, §4, §5, §6, §7, §8, §9

[7] = tested on: Mouse polyclonal sera (AM19-1-DVS (1) - KLH immunogen); assay: Antigen panel (direct) ELISA, mouse polyclonal sera; format: binding; settings: Mice 1 and 2
Experimental: as §10, §11, §12, §5, §13, §14, §15, §16, §9
(§17) These serum samples were assayed by direct ELISA for antibody titre to specific haptens.

[8] = tested on: Mouse polyclonal sera (AM19-1-DVS (2) - KLH immunogen); assay: as above; format: binding; settings: Mice 3 and 4
Experimental: as §10, §11, §12, §5, §13, §14, §15, §16, §9, §17

[9] = tested on: Mouse polyclonal sera (AM19-1-DVS (1) - KLH immunogen); assay: Inhibition ELISA, AM19-1-DVS (1) HSA coated plate, mouse polyclonal sera; format: binding
Experimental: as §1, §2, §3, §4, §5, §6, §7, §8, §9

[10] = tested on: Mouse polyclonal sera (AM19-1-DVS (2) - KLH immunogen); assay: Inhibition ELISA, AM19-1-DVS (2) HSA coated plate, mouse polyclonal sera; format: binding
Experimental: as §1, §2, §3, §4, §5, §6, §7, §8, §9

[11] = tested on: Rabbit polyclonal sera (AM19-1-DVS-KLH (1) immunogen); assay: Inhibition ELISA, AM19-1-DVS (1) HSA coated plate, rabbit polyclonal sera; format: binding
Experimental: as §1, §2, §3, §4, §5, §6, §7, §8, §9
The AM19-1-DVS (1) conjugate was also used to immunize rabbits.

[12] = tested on: Mouse polyclonal sera (AM19-9-DVS-KLH immunogen); assay: Inhibition ELISA, AM19-9-DVS-HSA coated plates, mouse polyclonal sera; format: binding
Experimental: as §1, §2, §3, §4, §5, §6, §7, §8, §9

[13] = tested on: Mouse polyclonal sera (AM9-9-DVS-KLH immunogen); assay: Inhibition ELISA, AM19-9-DVS-HSA coated plate, mouse polyclonal sera; format: binding
Experimental: as §1, §2, §3, §4, §5, §6, §7, §8, §9

[14] = tested on: Mouse monoclonal antibody AM1-2E10; assay: Antigen panel (direct) ELISA, MoAb tissue culture supernatant; format: binding
Experimental: as §10, §11, §12, §5, §13, §14, §15, §16, §9

[15] = tested on: Mouse monoclonal antibody AM1-7F5; assay: as above; format: binding
Experimental: as §10, §11, §12, §5, §13, §14, §15, §16, §9

[16] = tested on: Mouse monoclonal antibody CSA-1H6; assay: as above; format: binding
Experimental: as §10, §11, §12, §5, §13, §14, §15, §16, §9

[17] = tested on: Mouse monoclonal antibody CSA-2G9; assay: as above; format: binding
Experimental: as §10, §11, §12, §5, §13, §14, §15, §16, §9

MoAb CSA-1H6 = assay: Inhibition ELISA to the CSA-DVS-HSA conjugate, MoAb; format: binding, mouse; settings: CSA-1H6 TCS; Table 16; CSA-DVS-HSA conjugate
Experimental: as §1, §2, §3, §4, §5, §6, §7
(§18) 9. Dilute alkaline phosphatase conjugated anti-mouse IgG (Pierce cat#31322) in PBS/0.1% TWEEN™ (polyoxyethylene-sorbitol) (v/v) to 1:5000 concentration. Add 100 μL per well and incubate at 37° C. for 60 min.
as §9

MoAb CSA-2G9 = assay: as above; format: binding, mouse; settings: CSA-2G9 TCS; Table 16; CSA-DVS-HSA conjugate
Experimental: as §1, §2, §3, §4, §5, §6, §7, §18, §9

MoAb AM1-2E10 = assay: as above; format: binding, mouse; settings: AM1-2E10 TCS; Table 18; CSA-DVS-HSA coated plate
Experimental: as §1, §2, §3, §4, §5, §6, §7, §8, §9

MoAb AM1-7F5 = assay: as above; format: binding, mouse; settings: AM1-7F51; TCS; Table 18; CSA-DVS-HSA coated plate
Experimental: as §1, §2, §3, §4, §5, §6, §7, §8, §9

[18] = tested on: Mouse monoclonal antibody AM19-1-7E12-1; assay: Antigen panel (direct) ELISA, MoAb tissue culture supernatant; format: binding
Experimental: as §10, §11, §12, §5, §13, §14, §15, §16, §9
(§19) Spleen cells from mice immunized with the AM19-1-DVS (1) conjugate have been used to prepare MoAb secreting hybridoma cells.

[19] = tested on: Mouse monoclonal antibody AM19-1-7E12-2; assay: as above; format: binding
Experimental: as §10, §11, §12, §5, §13, §14, §15, §16, §9, §19

MoAb AM19-1-7E12-1 = assay: Inhibition ELISA with AM19-1-DVS (1) coated ELISA plates, MoAb; format: binding, mouse; settings: AM19-1-7E12-1 TCS
Experimental: as §1, §2, §3, §4, §5, §6, §7, §8, §9

MoAb AM19-1-7E12-2 = assay: as above; format: binding, mouse; settings: AM19-1-7F12-2
Experimental: as §1, §2, §3, §4, §5, §6, §7, §8, §9

[20] = Mouse 1, inhibiting AG conc 0.156 μg/100 μL
[21] = Mouse 1, inhibiting AG conc 0.313 μg/100 μL
[22] = Mouse 1, inhibiting AG conc 1.25 μg/100 μL
[23] = Mouse 1, inhibiting AG conc 5 μg/100 μL
[24] = Mouse 1, inhibiting AG conc 10 μg/100 μL
[25] = Mouse 2, inhibiting AG conc 0.156 μg/100 μL
[26] = Mouse 2, inhibiting AG conc 0.313 μg/100 μL
[27] = Mouse 2, inhibiting AG conc 1.25 μg/100 μL
[28] = Mouse 2, inhibiting AG conc 5 μg/100 μL
[29] = Mouse 2, inhibiting AG conc 10 μg/100 μL

FK-DVS-KLH: FK-DVS-KLH conjugate used as inhibitor
Percent Inhibition [1, 20]: 0%
Percent Inhibition [1, 21]: 0%
Percent Inhibition [1, 22]: 0%
Percent Inhibition [1, 23]: 0%
Percent Inhibition [1, 24]: 0%
Percent Inhibition [1, 25]: 0%
Percent Inhibition [1, 26]: 0%
Percent Inhibition [1, 27]: 0%
Percent Inhibition [1, 28]: 0%
Percent Inhibition [1, 29]: 0%

KLH: keyhole limpet hemocyanin, protein carrier
Percent Inhibition [1, 20]: 0%
Percent Inhibition [1, 21]: 0%
Percent Inhibition [1, 22]: 0%
Percent Inhibition [1, 23]: 0%
Percent Inhibition [1, 24]: 0%
Percent Inhibition [1, 25]: 0%
Percent Inhibition [1, 26]: 0%
Percent Inhibition [1, 27]: 0%
Percent Inhibition [1, 28]: 0%
Percent Inhibition [1, 29]: 0%
antibody response to the KLH carrier [2]: significant response
antibody titres to the KLH carrier [3]: Significant antibody titres
antibody titres to the KLH carrier protein [4]: significant antibody titres
antibody response to the KLH carrier [5]: significant response
Percent Inhibition ([6]; Mouse 1): 8.9%
Percent Inhibition ([6]; Mouse 2): 5.8%
antibody titres to the KLH carrier protein [7]: significant antibody titres
antibody titres to the KLH carrier protein [8]: significant antibody titres
Percent Inhibition ([9]; Mouse 1): 0%
Percent Inhibition ([9]; Mouse 2): 0%
Percent Inhibition ([10]; Mouse 3): 0%
Percent Inhibition ([10]; Mouse 4): 0%
Percent Inhibition [11]: 0%
Percent Inhibition ([12]; Mouse 5): 0%
Percent Inhibition ([12]; Mouse 6): 0%
Percent Inhibition ([13]; Mouse 1): 12.3%
Percent Inhibition ([13]; Mouse 2): 35.8%
Percent reactivity ([14]; AM1-2E10, OD to test antigen / OD to CSA-DVS-HSA × 100): 3.9%
OD ([14]; AM1-2E10 TCS, coated test antigen): 0.061
Percent reactivity ([15]; AM1-7F5, OD to test antigen / OD to CSA-DVS-HSA × 100): 0%
OD ([15]; AM1-7F5 TCS, coated test antigen): 0
Percent reactivity ([16]; CSA-1H6, OD to test antigen / OD to CSA-DVS-HSA × 100): 0%
OD ([16]; CSA-1H6 TCS, coated test antigen): 0
Percent reactivity ([17]; CSA-2G9, OD to test antigen / OD to CSA-DVS-HSA × 100): 0%
OD ([17]; CSA-2G9 TCS, coated test antigen): 0.026
Percent Inhibition of TCS (MoAb CSA-1H6): 0%
Percent Inhibition of TCS (MoAb CSA-2G9): 4.8%
Percent Inhibition of TCS (MoAb AM1-2E10): 0%
Percent Inhibition of TCS (MoAb AM1-7F5): 22.5%
Percent reactivity ([18]; AM19-1-7E12-1, OD to test antigen / OD to AM19-1-DVS (1)-HSA × 100): 0%
OD ([18]; AM19-1-7E12-1 TCS, coated test antigen): 0.023
Percent reactivity ([19]; AM19-1-7E12-2, OD to test antigen / OD to AM19-1-DVS (1)-HSA × 100): 0%
OD ([19]; AM19-1-7E12-2 TCS, coated test antigen): 0
Percent Inhibition of TCS (MoAb AM19-1-7E12-1): 3.8%
Percent Inhibition of TCS (MoAb AM19-1-7E12-2): 4.3%
